Results reported in patent US20230159532A1, “PARATHYROID HORMONE (PTH) RECEPTOR ANTAGONISTS AND USES THEREOF” (Crinetics Pharmaceuticals, Inc., priority 2021, published 2023).

Each molecule was assayed against T1, human PTHR1 receptor (Homo sapiens, UniProt Q03431) (assay: Competitive antagonist binding assay for hPTH-R1 (radioactive competition binding, SPA beads)). Conditions: human PTHR1 membranes, [125I]-[Nle8,18,Tyr34]-PTH(1-34) 0.2 nM, 90 minutes at room temperature; read-out: hPTHR1 Ki.
T1 construct: purchased Eurofins HTS030M
T1 sequence (Q03431 27-593): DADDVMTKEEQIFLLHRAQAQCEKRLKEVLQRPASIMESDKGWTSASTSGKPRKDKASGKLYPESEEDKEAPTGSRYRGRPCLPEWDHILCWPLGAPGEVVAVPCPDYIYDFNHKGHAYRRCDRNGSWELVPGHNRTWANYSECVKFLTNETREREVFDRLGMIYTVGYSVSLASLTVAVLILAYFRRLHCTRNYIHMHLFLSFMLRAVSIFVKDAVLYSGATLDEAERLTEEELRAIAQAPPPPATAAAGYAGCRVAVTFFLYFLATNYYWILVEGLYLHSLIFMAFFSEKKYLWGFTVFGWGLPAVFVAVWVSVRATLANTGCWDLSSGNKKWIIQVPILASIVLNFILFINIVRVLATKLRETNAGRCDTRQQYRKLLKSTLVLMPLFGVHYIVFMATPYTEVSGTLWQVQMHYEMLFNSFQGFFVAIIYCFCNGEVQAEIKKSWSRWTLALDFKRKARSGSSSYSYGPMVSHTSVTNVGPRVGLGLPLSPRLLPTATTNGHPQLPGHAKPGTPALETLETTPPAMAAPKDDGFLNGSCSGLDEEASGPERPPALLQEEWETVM
Method in brief: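 Displacement of 0.2 nM radioiodinated [Nle8,18,Tyr34]-PTH(1-34) from membrane-bound human PTHR1 measured by scintillation proximity after 90 min at room temperature. Compounds typically 0-10,000 nM final, pH 7.4 HEPES/Mg/Ca buffer with BSA and detergent. Ki calculated from competition data.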

Ki, < 100 nM:
CCN1C(=O)N(c2c(F)cc(NCCNC)cc2F)c2cc(C(F)(F)F)ccc2-c2cc(F)cnc21 [1-66, 10-(2,6-difluoro-4-{[2-(methylamino)ethyl]amino}phenyl)-8-ethyl-4-fluoro-13-(trifluoromethyl)-6,8,10-triazatricyclo[9.4.0.0^2,7]pentadeca-1(11),2(7),3,5,12,14-hexaen-9-one]
CCN1C(=O)N(c2c(F)cc(NCCNCCO)cc2F)c2cc(C(F)(F)F)ccc2-c2cc(F)cnc21 [1-67, 10-[2,6-difluoro-4-({2-[(2-hydroxyethyl)amino]ethyl}amino)phenyl]-8-ethyl-4-fluoro-13-(trifluoromethyl)-6,8,10-triazatricyclo[9.4.0.0^2,7]pentadeca-1(11),2(7),3,5,12,14-hexaen-9-one]
CCN1C(=O)N(c2c(F)cc(NCCNCCCC(=O)O)cc2F)c2cc(C#N)cc(C)c2-c2cc(F)cnc21 [1-68, 4-({2-[(4-{13-cyano-8-ethyl-4-fluoro-15-methyl-9-oxo-6,8,10-triazatricyclo[9.4.0.0^2,7]pentadeca-1(11),2(7),3,5,12,14-hexaen-10-yl}-3,5-difluorophenyl)amino]ethyl}amino)butanoic acid]
CCN1C(=O)N(c2c(F)cc(NCCNCCCC(=O)O)cc2F)c2cc(C(F)(F)F)ccc2-c2cc(F)cnc21 [1-69, 4-{[2-({4-[8-ethyl-4-fluoro-9-oxo-13-(trifluoromethyl)-6,8,10-triazatricyclo[9.4.0.0^2,7]pentadeca-1(11),2(7),3,5,12,14-hexaen-10-yl]-3,5-difluorophenyl}amino)ethyl]amino}butanoic acid]
CCN1C(=O)N(c2c(F)cc(NCCN(C)CCCC(=O)O)cc2F)c2cc(Cl)ccc2-c2cc(Cl)cnc21 [1-70, 4-({2-[(4-{4,13-dichloro-8-ethyl-9-oxo-6,8,10-triazatricyclo[9.4.0.0^2,7]pentadeca-1(11),2(7),3,5,12,14-hexaen-10-yl}-3,5-difluorophenyl)amino]ethyl}(methyl)amino)butanoic acid]
CCN1C(=O)N(c2c(F)cc(N[C@@H](C)CNCCO)cc2F)c2cc(Cl)ccc2-c2cc(Cl)cnc21 [1-71, 4,13-dichloro-10-(2,6-difluoro-4-{[(2S)-1-[(2-hydroxyethyl)amino]propan-2-yl]amino}phenyl)-8-ethyl-6,8,10-triazatricyclo[9.4.0.0^2,7]pentadeca-1(11),2(7),3,5,12,14-hexaen-9-one]
CCN1C(=O)N(c2c(F)cc(NCCNCCC(=O)O)cc2F)c2cc(Cl)ccc2-c2cc(Cl)cnc21 [1-72, 3-({2-[(4-{4,13-dichloro-8-ethyl-9-oxo-6,8,10-triazatricyclo[9.4.0.0^2,7]pentadeca-1(11),2(7),3,5,12,14-hexaen-10-yl}-3,5-difluorophenyl)amino]ethyl}amino)propanoic acid]
CCN1C(=O)N(c2c(F)cc(NCCN(C)CCO)cc2F)c2cc(Cl)ccc2-c2cc(Cl)cnc21 [1-73, 4,13-dichloro-10-[2,6-difluoro-4-({2-[(2-hydroxyethyl)(methyl)amino]ethyl}amino)phenyl]-8-ethyl-6,8,10-triazatricyclo[9.4.0.0^2,7]pentadeca-1(11),2(7),3,5,12,14-hexaen-9-one]
CCN1C(=O)N(c2c(F)cc(NCCNCCOC)cc2F)c2cc(Cl)ccc2-c2cc(Cl)cnc21 [1-74, 4,13-dichloro-10-[2,6-difluoro-4-({2-[(2-methoxyethyl)amino]ethyl}amino)phenyl]-8-ethyl-6,8,10-triazatricyclo[9.4.0.0^2,7]pentadeca-1(11),2(7),3,5,12,14-hexaen-9-one]
CNCCNc1cc(F)c(N2C(=O)N(C)c3ncc(F)cc3-c3c(C)cc(Cl)cc32)c(F)c1 [1-75, 13-chloro-10-(2,6-difluoro-4-{[2-(methylamino)ethyl]amino}phenyl)-4-fluoro-8,15-dimethyl-6,8,10-triazatricyclo[9.4.0.0^2,7]pentadeca-1(11),2(7),3,5,12,14-hexaen-9-one]
Cc1cc(Cl)cc2c1-c1cc(F)cnc1N(C)C(=O)N2c1c(F)cc(NCCNCCO)cc1F [1-76, 13-chloro-10-[2,6-difluoro-4-({2-[(2-hydroxyethyl)amino]ethyl}amino)phenyl]-4-fluoro-8,15-dimethyl-6,8,10-triazatricyclo[9.4.0.0^2,7]pentadeca-1(11),2(7),3,5,12,14-hexaen-9-one]
Cc1cc(Cl)cc2c1-c1cc(F)cnc1N(C)C(=O)N2c1c(F)cc(NCCNCCCC(=O)O)cc1F [1-77, 4-({2-[(4-{13-chloro-4-fluoro-8,15-dimethyl-9-oxo-6,8,10-triazatricyclo[9.4.0.0^2,7]pentadeca-1(11),2(7),3,5,12,14-hexaen-10-yl}-3,5-difluorophenyl)amino]ethyl}amino)butanoic acid]
CNCCNc1cc(F)c(N2C(=O)N(C(C)C)c3ncc(F)cc3-c3c(C)cc(Cl)cc32)c(F)c1 [1-78, 13-chloro-10-(2,6-difluoro-4-{[2-(methylamino)ethyl]amino}phenyl)-4-fluoro-15-methyl-8-(propan-2-yl)-6,8,10-triazatricyclo[9.4.0.0^2,7]pentadeca-1(11),2(7),3,5,12,14-hexaen-9-one]
Cc1cc(Cl)cc2c1-c1cc(F)cnc1N(C(C)C)C(=O)N2c1c(F)cc(NCCNCCO)cc1F [1-79, 13-chloro-10-[2,6-difluoro-4-({2-[(2-hydroxyethyl)amino]ethyl}amino)phenyl]-4-fluoro-15-methyl-8-(propan-2-yl)-6,8,10-triazatricyclo[9.4.0.0^2,7]pentadeca-1(11),2(7),3,5,12,14-hexaen-9-one]
Cc1cc(Cl)cc2c1-c1cc(F)cnc1N(C(C)C)C(=O)N2c1c(F)cc(NCCNCCCC(=O)O)cc1F [1-80, 4-{[2-({4-[13-chloro-4-fluoro-15-methyl-9-oxo-8-(propan-2-yl)-6,8,10-triazatricyclo[9.4.0.0^2,7]pentadeca-1(11),2(7),3,5,12,14-hexaen-10-yl]-3,5-difluorophenyl}amino)ethyl]amino}butanoic acid]
CCN1C(=O)N(c2c(F)cc(NCCNC)cc2F)c2cc(C#N)ccc2-c2cc(F)cnc21 [1-81, 10-(2,6-difluoro-4-{[2-(methylamino)ethyl]amino}phenyl)-8-ethyl-4-fluoro-9-oxo-6,8,10-triazatricyclo[9.4.0.0^2,7]pentadeca-1(11),2(7),3,5,12,14-hexaene-13-carbonitrile]
CCN1C(=O)N(c2c(F)cc(NCCNCCO)cc2F)c2cc(C#N)ccc2-c2cc(F)cnc21 [1-82, 10-[2,6-difluoro-4-({2-[(2-hydroxyethyl)amino]ethyl}amino)phenyl]-8-ethyl-4-fluoro-9-oxo-6,8,10-triazatricyclo[9.4.0.0^2,7]pentadeca-1(11),2(7),3,5,12,14-hexaene-13-carbonitrile]
CCN1C(=O)N(c2c(F)cc(NCCNCCCC(=O)O)cc2F)c2cc(C#N)ccc2-c2cc(F)cnc21 [1-83, 4-({2-[(4-{13-cyano-8-ethyl-4-fluoro-9-oxo-6,8,10-triazatricyclo[9.4.0.0^2,7]pentadeca-1(11),2(7),3,5,12,14-hexaen-10-yl}-3,5-difluorophenyl)amino]ethyl}amino)butanoic acid]
CNCCNc1cc(F)c(N2C(=O)N(C(C)C)c3ncc(F)cc3-c3ccc(C#N)cc32)c(F)c1 [1-84, 10-(2,6-difluoro-4-{[2-(methylamino)ethyl]amino}phenyl)-4-fluoro-9-oxo-8-(propan-2-yl)-6,8,10-triazatricyclo[9.4.0.0^2,7]pentadeca-1(11),2(7),3,5,12,14-hexaene-13-carbonitrile]
CC(C)N1C(=O)N(c2c(F)cc(NCCNCCO)cc2F)c2cc(C#N)ccc2-c2cc(F)cnc21 [1-85, 10-[2,6-difluoro-4-({2-[(2-hydroxyethyl)amino]ethyl}amino)phenyl]-4-fluoro-9-oxo-8-(propan-2-yl)-6,8,10-triazatricyclo[9.4.0.0^2,7]pentadeca-1(11),2(7),3,5,12,14-hexaene-13-carbonitrile]
CC(C)N1C(=O)N(c2c(F)cc(NCCNCCCC(=O)O)cc2F)c2cc(C#N)ccc2-c2cc(F)cnc21 [1-86, 4-{[2-({4-[13-cyano-4-fluoro-9-oxo-8-(propan-2-yl)-6,8,10-triazatricyclo[9.4.0.0^2,7]pentadeca-1(11),2(7),3,5,12,14-hexaen-10-yl]-3,5-difluorophenyl}amino)ethyl]amino}butanoic acid]
CCN1C(=O)N(c2c(F)cc(NCCNC)cc2F)c2cc(Cl)cc(OC)c2-c2cc(F)cnc21 [1-87, 13-chloro-10-(2,6-difluoro-4-{[2-(methylamino)ethyl]amino}phenyl)-8-ethyl-4-fluoro-15-methoxy-6,8,10-triazatricyclo[9.4.0.0^2,7]pentadeca-1(11),2(7),3,5,12,14-hexaen-9-one]
